Assays:
JH2 domain of human Tyk2 = JH2 domain of human Tyk2 (Homo sapiens (Human), UniProt P29597); assay: JH2 Biochemical Assay (TR-FRET probe displacement); format: binding; conditions: TR-FRET probe displacement, JH2 domain of human Tyk2
Tyk2 = Tyk2 (Homo sapiens (Human), UniProt P29597); assay: pSTAT4 Cell Assay (MSD, NK92 cells); format: cell-based; conditions: MSD
Sequence of Tyk2 (P29597 whole entry): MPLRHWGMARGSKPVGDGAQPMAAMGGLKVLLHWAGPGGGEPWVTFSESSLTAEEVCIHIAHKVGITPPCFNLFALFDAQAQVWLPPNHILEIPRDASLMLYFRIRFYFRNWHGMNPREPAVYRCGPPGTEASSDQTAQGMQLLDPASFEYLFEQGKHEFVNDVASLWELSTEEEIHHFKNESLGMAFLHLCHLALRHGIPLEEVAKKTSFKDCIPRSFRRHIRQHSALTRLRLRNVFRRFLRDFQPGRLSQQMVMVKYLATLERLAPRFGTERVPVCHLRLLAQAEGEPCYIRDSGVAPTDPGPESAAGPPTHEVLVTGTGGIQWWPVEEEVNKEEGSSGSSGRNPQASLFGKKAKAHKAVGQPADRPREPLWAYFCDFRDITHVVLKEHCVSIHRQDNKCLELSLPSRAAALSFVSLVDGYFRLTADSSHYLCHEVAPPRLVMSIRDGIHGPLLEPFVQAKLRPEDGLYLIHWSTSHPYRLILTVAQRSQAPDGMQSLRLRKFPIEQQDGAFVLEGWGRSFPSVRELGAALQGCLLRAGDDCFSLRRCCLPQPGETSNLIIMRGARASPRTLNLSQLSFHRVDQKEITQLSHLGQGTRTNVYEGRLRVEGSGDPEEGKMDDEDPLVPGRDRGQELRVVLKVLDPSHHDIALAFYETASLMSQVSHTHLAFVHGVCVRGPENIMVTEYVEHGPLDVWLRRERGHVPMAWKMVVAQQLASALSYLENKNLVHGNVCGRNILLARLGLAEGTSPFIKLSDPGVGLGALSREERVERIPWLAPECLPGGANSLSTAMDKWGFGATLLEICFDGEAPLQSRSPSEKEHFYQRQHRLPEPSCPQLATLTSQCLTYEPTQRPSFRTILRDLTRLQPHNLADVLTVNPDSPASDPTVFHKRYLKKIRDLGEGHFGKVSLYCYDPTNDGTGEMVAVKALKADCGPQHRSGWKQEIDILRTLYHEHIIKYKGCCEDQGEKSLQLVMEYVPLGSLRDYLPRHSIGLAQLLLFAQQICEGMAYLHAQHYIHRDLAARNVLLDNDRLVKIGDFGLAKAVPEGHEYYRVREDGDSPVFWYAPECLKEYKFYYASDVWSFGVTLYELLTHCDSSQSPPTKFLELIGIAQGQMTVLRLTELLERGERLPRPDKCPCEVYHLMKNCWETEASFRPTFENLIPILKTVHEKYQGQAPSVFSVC

Sequence of JH2 domain of human Tyk2 (P29597 575-876): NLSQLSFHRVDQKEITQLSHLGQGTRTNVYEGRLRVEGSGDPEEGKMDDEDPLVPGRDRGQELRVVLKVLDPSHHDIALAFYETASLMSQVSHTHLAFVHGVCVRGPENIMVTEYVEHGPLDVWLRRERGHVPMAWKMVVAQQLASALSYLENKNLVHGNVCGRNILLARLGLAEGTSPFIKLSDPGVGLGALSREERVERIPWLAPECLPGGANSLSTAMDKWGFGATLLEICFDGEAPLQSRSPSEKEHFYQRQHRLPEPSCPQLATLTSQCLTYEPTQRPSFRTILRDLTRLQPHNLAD

Compound | IC50 (JH2 domain of human Tyk2) | IC50 (Tyk2)
CCCc1cnc(NC(C)=O)cc1Nc1cc(C)nc(C(C)(F)F)n1 [Example 43, N-(4-((2-(1,1-difluoroethyl)-6-methylpyrimidin-4-yl)amino)-5-propylpyridin-2-yl)acetamide] | 10 to 100 nM | ≥ 1000 nM
CC(=O)Nc1cc(Nc2cc(C)nc(C(C)(F)F)n2)c(OC2CC2)cn1 [Example 45, N-(5-cyclopropoxy-4-((2-(1,1-difluoroethyl)-6-methylpyrimidin-4-yl)amino)pyridin-2-yl)acetamide] | ≤ 10 nM | 10 to 100 nM
COCc1cnc(NC(C)=O)cc1Nc1cc(C)nc(C(C)(F)F)n1 [Example 47, N-(4-((2-(1,1-difluoroethyl)-6-methylpyrimidin-4-yl)amino)-5-(methoxymethyl)pyridin-2-yl)acetamide] | 10 to 100 nM | ≥ 1000 nM
COCc1cnc(NC(C)=O)cc1Nc1ccc(-c2ccn(C)n2)c(OC)n1 [Example 48, N-(4-((6-methoxy-5-(1-methyl-1H-pyrazol-3-yl)pyridin-2-yl)amino)-5-(methoxymethyl)pyridin-2-yl)acetamide] | 100 to 1000 nM | ≥ 1000 nM
CCOc1cnc(NC(C)=O)cc1Nc1cc(C(C)C)nc(C(C)(F)F)n1 [Example 51, N-(4-((2-(1,1-difluoroethyl)-6-isopropylpyrimidin-4-yl)amino)-5-ethoxypyridin-2-yl)acetamide] | ≤ 10 nM | 10 to 100 nM
CCOc1cnc(NC(C)=O)cc1Nc1cc(OC2CC(C)(O)C2)nc(C(C)(F)F)n1 (centres unmarked) [Example 53, N-(4-((2-(1,1-difluoroethyl)-6-(3-hydroxy-3-methylcyclobutoxy)pyrimidin-4-yl)amino)-5-ethoxypyridin-2-yl)acetamide] | ≤ 10 nM | 10 to 100 nM
C=Cc1cc(Nc2cc(NC(C)=O)ncc2OCCOC)nc(C(C)(F)F)n1 [Example 55, N-(4-((2-(1,1-difluoroethyl)-6-vinylpyrimidin-4-yl)amino)-5-(2-methoxyethoxy)pyridin-2-yl)acetamide] | ≤ 10 nM | ≤ 10 nM
COCCOc1cnc(NC(C)=O)cc1Nc1cccc(C(C)(F)F)n1 [Example 56, N-(4-((6-(1,1-difluoroethyl)pyridin-2-yl)amino)-5-(2-methoxyethoxy)pyridin-2-yl)acetamide] | ≤ 10 nM | ≤ 10 nM
CC(=O)Nc1cc(Nc2cc(C)nc(C(C)(F)F)n2)c(OCC2(C(F)(F)F)CC2)cn1 [Example 57, N-(4-((2-(1,1-difluoroethyl)-6-methylpyrimidin-4-yl)amino)-5-((1-(trifluoromethyl)cyclopropyl)methoxy)pyridin-2-yl)acetamide] | ≤ 10 nM | 10 to 100 nM
COCC(C)Oc1cnc(NC(C)=O)cc1Nc1cc(C)nc(C(C)(F)F)n1 (centres unmarked) [Example 59, N-(4-((2-(1,1-difluoroethyl)-6-methylpyrimidin-4-yl)amino)-5-((1-methoxypropan-2-yl)oxy)pyridin-2-yl)acetamide] | ≤ 10 nM | 100 to 1000 nM
COC(C)COc1cnc(NC(C)=O)cc1Nc1cc(C)nc(C(C)(F)F)n1 (centres unmarked) [Example 60, N-(4-((2-(1,1-difluoroethyl)-6-methylpyrimidin-4-yl)amino)-5-(2-methoxypropoxy)pyridin-2-yl)acetamide] | ≤ 10 nM | 10 to 100 nM
CC(=O)Nc1cc(Nc2cc(C)nc(C(C)(F)F)n2)c(OCC2COC2)cn1 [Example 61, N-(4-((2-(1,1-difluoroethyl)-6-methylpyrimidin-4-yl)amino)-5-(oxetan-3-ylmethoxy)pyridin-2-yl)acetamide] | ≤ 10 nM | 10 to 100 nM
CC(=O)Nc1cc(Nc2cc(C)nc(C(C)(F)F)n2)c(OCC2CCC2)cn1 [Example 62, N-(5-(cyclobutylmethoxy)-4-((2-(1,1-difluoroethyl)-6-methylpyrimidin-4-yl)amino)pyridin-2-yl)acetamide] | ≤ 10 nM | 10 to 100 nM
COCCOc1cnc(NC(C)=O)cc1Nc1cc(C)cc(C(C)(F)F)n1 [Example 63, N-(4-((6-(1,1-difluoroethyl)-4-methylpyridin-2-yl)amino)-5-(2-methoxyethoxy)pyridin-2-y1)acetamide] | ≤ 10 nM | ≤ 10 nM
CC(=O)Nc1cc(Nc2cccc(C(C)(F)F)n2)c(OCCN2CCCC2)cn1 [Example 64, N-(4-((6-(1,1-difluoroethyl)pyridin-2-yl)amino)-5-(2-(pyrrolidin-1-yl)ethoxy)pyridin-2-yl)acetamide] | ≤ 10 nM | 10 to 100 nM
CCc1cc(Nc2cc(NC(C)=O)ncc2OCCOC(F)F)nc(C(C)(F)F)n1 [Example 68, N-(4-((2-(1,1-difluoroethyl)-6-ethylpyrimidin-4-yl)amino)-5-(2-(difluoromethoxy)ethoxy)pyridin-2-yl)acetamide] | ≤ 10 nM | ≤ 10 nM
CCc1cc(Nc2cc(NC(C)=O)ncc2OCCN2CCOCC2)nc(C(C)(F)F)n1 [Example 70, N-(4-((2-(1,1-difluoroethyl)-6-ethylpyrimidin-4-yl)amino)-5-(2-morpholinoethoxy)pyridin-2-yl)acetamide] | ≤ 10 nM | ≤ 10 nM

Compound | IC50 (JH2 domain of human Tyk2) | IC50 (Tyk2)
CCc1cc(Nc2cc(NC(C)=O)ncc2OCCN2CCN(C)CC2)nc(C(C)(F)F)n1 [Example 71, N-(4-((2-(1,1-difluoroethyl)-6-ethylpyrimidin-4-yl)amino)-5-(2-(4-methylpiperazin-1-yl)ethoxy)pyridin-2-yl)acetamide] | ≤ 10 nM | ≤ 10 nM
COCCOc1cnc(NC(C)=O)cc1Nc1cccc(C2CCOC2)n1 (centres unmarked) [Example 72, N-(5-(2-methoxyethoxy)-4-((6-(tetrahydrofuran-3-yl)pyridin-2-yl)amino)pyridin-2-yl)acetamide] | ≤ 10 nM | 100 to 1000 nM
CC(=O)Nc1cc(Nc2cc(C)nc(C(C)(F)F)n2)c(OCC2CC2(F)F)cn1 (centres unmarked) [Example 74, N-(5-((2,2-difluorocyclopropyl)methoxy)-4-((2-(1,1-difluoroethyl)-6-methylpyrimidin-4-yl)amino)pyridin-2-yl)acetamide] | ≤ 10 nM | 10 to 100 nM
COCCOc1cnc(NC(C)=O)cc1Nc1nccc(C(C)(F)F)n1 [Example 75, N-(4-((4-(1,1-difluoroethyl)pyrimidin-2-yl)amino)-5-(2-methoxyethoxy)pyridin-2-yl)acetamide] | ≤ 10 nM | 100 to 1000 nM
COCCOc1cnc(NC(C)=O)cc1Nc1nc(C)cc(C(C)(F)F)n1 [Example 78] | ≤ 10 nM | 10 to 100 nM
COCCOc1cnc(NC(C)=O)cc1Nc1cc(C)nc(C(F)CF)n1 (centres unmarked) [Example 79, N-(4-((2-(1,2-difluoroethyl)-6-methylpyrimidin-4-yl)amino)-5-(2-methoxyethoxy)pyridin-2-yl)acetamide] | ≤ 10 nM | 10 to 100 nM
COCCOc1cnc(NC(C)=O)cc1Nc1nc(C)cc(C(F)CF)n1 (centres unmarked) [Example 80, N-(4-((4-(1,2-difluoroethyl)-6-methylpyrimidin-2-yl)amino)-5-(2-methoxyethoxy)pyridin-2-yl)acetamide] | 10 to 100 nM | 100 to 1000 nM
COCCOc1cnc(NC(C)=O)cc1Nc1cc(C)nc(C(C)(F)CF)n1 (centres unmarked) [Example 81, N-(4-((2-(1,2-difluoropropan-2-y1)-6-methylpyrimidin-4-yl)amino)-5-(2-methoxyethoxy)pyridin-2-yl)acetamide] | ≤ 10 nM | 10 to 100 nM
COCCOc1cnc(NC(C)=O)cc1Nc1cc(C)nc(C(C)CF)n1 (centres unmarked) [Example 82, N-(4-((2-(1-fluoropropan-2-yl)-6-methylpyrimidin-4-yl)amino)-5-(2-methoxyethoxy)pyridin-2-yl)acetamide] | ≤ 10 nM | 10 to 100 nM
CC(=O)Nc1cc(Nc2cc(C)nc(C(C)(F)F)n2)c(OC(C)C2CC2)cn1 (centres unmarked) [Example 83, N-(5-(1-cyclopropylethoxy)-4-((2-(1,1-difluoroethyl)-6-methylpyrimidin-4-yl)amino)pyridin-2-yl)acetamide] | ≤ 10 nM | 100 to 1000 nM
CC(=O)Nc1cc(Nc2cc(C)nc(C(C)(F)F)n2)c(OCC2(C#N)CC2)cn1 [Example 84, N-(5-((1-cyanocyclopropyl)methoxy)-4-((2-(1,1-difluoroethyl)-6-methylpyrimidin-4-yl)amino)pyridin-2-yl)acetamide] | ≤ 10 nM | 10 to 100 nM
CC(=O)Nc1cc(Nc2cc(C)nc(C(C)(F)F)n2)c(OCC2CCO2)cn1 (centres unmarked) [Example 85, N-(4-((2-(1,1-difluoroethyl)-6-methylpyrimidin-4-yl)amino)-5-(oxetan-2-ylmethoxy)pyridin-2-yl)acetamide] | ≤ 10 nM | 10 to 100 nM
CC(=O)Nc1cc(Nc2cc(C)nc(C(C)(F)F)n2)c(OC2COC2)cn1 [Example 86, N-(4-((2-(1,1-difluoroethyl)-6-methylpyrimidin-4-yl)amino)-5-(oxetan-3-yloxy)pyridin-2-yl)acetamide] | ≤ 10 nM | 10 to 100 nM
COCCOc1cnc(NC(C)=O)cc1Nc1cncc(C(F)CF)n1 (centres unmarked) [Example 89, N-(4-((6-(1,2-difluoroethyl)pyrazin-2-yl)amino)-5-(2-methoxyethoxy)pyridin-2-yl)acetamide] | 10 to 100 nM | 10 to 100 nM
C=C(F)c1cncc(Nc2cc(NC(C)=O)ncc2OCCOC)n1 [Example 90, N-(4-((6-(1-fluorovinyl)pyrazin-2-yl)amino)-5-(2-methoxyethoxy)pyridin-2-yl)acetamide] | ≤ 10 nM | 100 to 1000 nM
CCc1cc(Nc2cc(NC(=O)OC)ncc2OCCN(C)C)nc(C(C)(F)F)n1 [Example 92, methyl (4-((2-(1,1-difluoroethyl)-6-ethylpyrimidin-4-yl)amino)-5-(2-(dimethylamino)ethoxy)pyridin-2-yl)carbamate] | ≤ 10 nM | 10 to 100 nM
CC(=O)Nc1cc(Nc2cc(OC3CC3)nc(C(C)(F)F)n2)c(OC(F)(F)F)cn1 [Example 93, N-(4-((6-cyclopropoxy-2-(1,1-difluoroethyl)pyrimidin-4-yl)amino)-5-(trifluoromethoxy)pyridin-2-yl)acetamide] | ≤ 10 nM | 100 to 1000 nM
